Measurements: patent publication US10227281B2, “Preparation of 2,6- and 2,7-disubstituted anthraquinone derivates” (BASF SE, priority 2014, dated 2019)
In brackets after ≈: the same amount, converted by molar mass.

Legend:
[1] = Determination of the solubility of anthraquinone derivatives in xylene/diisobutylcarbinol; conditions: for Solubility in the solvent system used (in words): xylene/diisobutylcarbinol solvent system, comparison of the derivatives
Procedure: 0.06 ml of a mixture of xylene (50 volume-%) and diisobutylcarbinol (50 volume-%) were added to 1 g of the respective anthraquinone derivative at 22° C. every 60 seconds until the anthraquinone derivative was dissolved completely.

[2] = Solubility of the anthrahydroquinone from the amount of absorbed hydrogen until precipitation; assay type: physicochemical; conditions: hydroquinone form, equivolume mixture of xylene and diisobutylcarbinol, 30° C.
Procedure: 5 g of the anthraquinone derivative obtained from Example 4 were dissolved in an equivolume mixture of xylene and diisobutylcarbinol at 30° C. to obtain 100 ml of an anthraquinone solution. 2 g of a palladium catalyst on alumina was added to 50 ml of the anthraquinone solution and then the solution was made to absorb the theoretical amount of hydrogen at 30° C. The obtained solution has been left untouched for 15 h to thoroughly precipitate the excess of anthrahydroquinone. After the catalyst and the precipitate have been separated by filtration under a current of nitrogen, the resulting solution was stirred under air in order to oxidize the anthrahydroquinone back to the corresponding anthraquinone. The produced hydrogen peroxide was extracted with water. After the extraction of the hydrogen peroxide was completed, 25 mL of the working solution were further submitted to subsequent hydrogenation at 30° C. as described above until a state of saturation was reached.

[3] = mixture of xylene (50 volume-%) and diisobutylcarbinol (50 volume-%), 22° C., quinone form

| Molecule | Solubility [1, 3] | Solubility of the anthrahydroquinone [2] [mM] | Solubility in the solvent system used (in words) [1] | Solubility ([1]; xylene/diisobutylcarbinol mixture (50:50 by volume)) [mM] |
| --- | --- | --- | --- | --- |
| 2,6-bis(4-methylpent-3-enyl)anthracene-9,10-dione and 2,7-bis(4-methylpent-3-enyl)anthracene-9,10-dione [Example 1] | 770 mM |  |  |  |
| 2,6-diisohexylanthracene-9,10-dione and 2,7-diisohexylanthracene-9,10-dione [Example 4] | 1610 mM | 1010 | highest solubility |  |
| CCc1ccc2c(c1)C(=O)c1ccccc1C2=O [2-ethylanthraquinone] |  |  | only poorly soluble |  |
| CC(C)=CCc1ccc2c(c1)C(=O)c1ccccc1C2=O [Comparative Example 1, 2-(3-methylbut-2-en-1-yl)anthracene-9,10-dione] |  |  |  | 770 (≈ 213 mg/mL) |
| Cc1cc2c(cc1C)C(=O)c1cc(C)c(C)cc1C2=O [Comparative Example 3, 2,3,6,7-tetramethylanthracene-9,10-dione] | Insoluble |  | insoluble |  |
